# Results: PubChem BioAssay AID1963441 (Molecular Pharmacology Branch, DTP, NCI, 2024)
# Tested on: NCI-H1876 complex spheroid growth, % test/control
# Assay: Anticancer human tumor NCI-H1876 cell line growth inhibition [Asc];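 note: compound exposure lasted 7 days starting three days after seeding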;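 for viability, T/C: 100% = DMSO vehicle control wells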
# Conditions: for IC50: curve of first compound; for viability, T/C: stronger effect = lower value
# Protocol: Multicellular complex tumor spheroid response to apoptosis pathway targeting inhibitors Alrizomadlin, Pelcitoclax, and Dasminapant in combination with a variety of drugs and investigational agents in selected tumor cell lines
# The MDM2 inhibitor alrizomadlin, the Bcl-2/Bcl-xL inhibitor pelcitoclax, and the IAPs inhibitor dasminapant were evaluated both individually and in combination with standard of care and investigational anticancer small molecules within a complex spheroid model of solid tumors. . Complex spheroids include a stromal component modeled by human endothelial cells (HUVEC) and fibroblasts modeled by human mesenchymal stem cells (MSCs). The concentration ranges selected for each drug and investigational agent were based upon clinically achievable concentrations if the clinical Cmax of the agent was known.
# Compounds. The drugs and investigational agents: alrizomadlin (APG-115; NSC831270), pelcitoclax (APG-1252; NSC835773), dasminapant (APG-1387;NSC834197), TAK-243 (NSC785004), copanlisib (NSC809693), olaparib (NSC753686), talazoparib (NSC767125), cobimetinib (NSC 768068), eltanexor (KPT-8602, NSC 794443), abemaciclib (NSC 768073), sotorasib (NSC818433), adagrasib (NSC 831453), MRTX-1133 (NSC 836407), Iadademestat (ORY1001, NSC 806812), and RMC-4630 (NSC839698), were obtained from the NCI Developmental Therapeutics Program Chemical Repository. The FDA-approved anticancer drug set is available from the Developmental Therapeutics Program at https://dtp.cancer.gov/organization/dscb/obtaining/available plates.htm. […] The stock solutions were prepared in dimethyl sulfoxide (DMSO, Sigma-Aldrich, St. Louis, MO, cat. D2650) at 800-fold the tested concentration and stored at -70 degrees C prior to their use. All drugs and investigational agents were tested over a range starting from a high concentration at or near the clinical Cmax and decreasing in half-log increments. If the clinical Cmax for an agent had not been determined, the highest concentration tested was 10 microM.
# The patient-derived cancer (PDC) cell lines include five colon adenocarcinomas: 186277-243-T-J2-PDC, 616215-338-R-J1-PDC, 439559-082-T-J2-PDC, 463943-066-T-J2-PDC, and 519858-162-T-J1-PDC; three pancreatic carcinomas: 323965-272-R-J2-PDC, 521955-158-R6-J3-PDC, and 521955-158-R2-J5-PDC; two uterine sarcomas: 327498-152-R-J2-PDC and 993429-296-R-J1-PDC; two rhabdomyosarcomas: 755483-174-R-J1-PDC and 772245-204-R-J1-PDC; two soft tissue sarcomas: 126254-015-R-J1-PDC and 494315-158-R-J1-PDC; two malignant fibrous histiocytomas: 317291-083-R-J1-PDC and 596521-263-R-J1-PDC; two breast carcinomas: 171881-019-R-J1-PDC and 885512-296-R-J2-PDC; and one ovarian carcinoma: 6556581-035-R-J-PDC were obtained from the NCI PDMR, (https://pdmr.cancer.gov). The established cell lines HSSY-2 synovial sarcoma (RRID:CVCL 8719), SYO-1 synovial sarcoma (RRID:CVCL_7146), MPNST malignant peripheral neural sheath tumor were obtained from the Sloan Kettering Institute. The following established cell lines were purchased from the American Type Culture Collection (ATCC, Manassas, VA), Sor the received from the NCI repository:, PANC-1 pancreatic carcinoma (CRL-1469, RRID:CVCL_0480), OVCAR-5 ovarian carcinoma (RRID:CVCL_1628), OVCAR-8 ovarian carcinoma (RRID:CVCL_1629), , MCF-7 breast carcinoma (CRL-12584, RRID:CVCL_0031), MDA-MB-231 breast carcinoma (CRL-12532, RRID:CVCL_0062), NCI-H1876 small cell lung carcinoma (CRL-5902, RRID:CVCL_1503), NCI-H510A small cell lung carcinoma (HTB-184, RRID:CVCL_1565), NCI-H1417 (CRL-5869, RRID:CVCL_1469), and NCI-H196 small cell lung carcinoma (CRL-5823, RRID:CVCL_1509). Dr. Peter Houghton (Greehey Children's Cancer Research Institute, University of Texas Health Science Center, San Antonio, TX) provided Rh-18 rhabdomyosarcoma (RRID:CVCL_1659). Pooled donor human umbilical vein endothelial cells (HUVEC, Lonza, cat. CC-2519) and human mesenchymal stem cells (hMSC, Lonza, cat. PT-2501) were purchased from Lonza (Walkersville, MD).
# Cell Culture. […]
# [1] = second compound 0.00949 µM, first compound 0.00316 µM
# [2] = second compound 0.00949 µM, first compound 0.01 µM
# [3] = second compound 0.00949 µM, first compound 0.0316 µM
# [4] = second compound 0.00949 µM, first compound 0.1 µM
# [5] = second compound 0.00949 µM, first compound 0.316 µM
# [6] = second compound 0.00949 µM, first compound 1 µM
# [7] = second compound 0.03 µM, first compound 0.00316 µM
# [8] = second compound 0.03 µM, first compound 0.01 µM
# [9] = second compound 0.03 µM, first compound 0.0316 µM
# [10] = second compound 0.03 µM, first compound 0.1 µM
# [11] = second compound 0.03 µM, first compound 0.316 µM
# [12] = second compound 0.03 µM, first compound 1 µM
# [13] = second compound 0.0949 µM, first compound 0.00316 µM
# [14] = second compound 0.0949 µM, first compound 0.01 µM
# [15] = second compound 0.0949 µM, first compound 0.0316 µM
# [16] = second compound 0.0949 µM, first compound 0.1 µM
# [17] = second compound 0.0949 µM, first compound 0.316 µM
# [18] = second compound 0.0949 µM, first compound 1 µM
# [19] = second compound 0.3 µM, first compound 0.00316 µM
# [20] = second compound 0.3 µM, first compound 0.01 µM
# [21] = second compound 0.3 µM, first compound 0.0316 µM
# [22] = second compound 0.3 µM, first compound 0.1 µM
# [23] = second compound 0.3 µM, first compound 0.316 µM
# [24] = second compound 0.3 µM, first compound 1 µM
# [25] = second compound 0.949 µM, first compound 0.00316 µM
# [26] = second compound 0.949 µM, first compound 0.01 µM
# [27] = second compound 0.949 µM, first compound 0.0316 µM
# [28] = second compound 0.949 µM, first compound 0.1 µM
# [29] = second compound 0.949 µM, first compound 0.316 µM
# [30] = second compound 0.949 µM, first compound 1 µM
# [31] = second compound 3 µM, first compound 0.00316 µM
# [32] = second compound 3 µM, first compound 0.01 µM
# [33] = second compound 3 µM, first compound 0.0316 µM
# [34] = second compound 3 µM, first compound 0.1 µM
# [35] = second compound 3 µM, first compound 0.316 µM
# [36] = second compound 3 µM, first compound 1 µM
smiles,measurement,setting,value
CCN1CCN(Cc2ccc(Nc3ncc(F)c(-c4cc(F)c5nc(C)n(C(C)C)c5c4)n3)nc2)CC1 + CCN1C(C(=O)NC23CCC(C(=O)O)(CC2)CC3)C(c2cccc(Cl)c2F)C2(C(=O)Nc3cc(Cl)ccc32)C12CCCCC2,IC50,second compound 0.00949 µM,> 1 µM
same,IC50,second compound 0.03 µM,> 1 µM
same,IC50,second compound 0.0949 µM,> 1 µM
same,IC50,second compound 0.3 µM,> 1 µM
same,IC50,second compound 0.949 µM,> 1 µM
same,IC50,second compound 3 µM,> 1 µM
same,"viability, T/C",[1],103%
same,"viability, T/C",[2],100%
same,"viability, T/C",[3],106%
same,"viability, T/C",[4],115%
same,"viability, T/C",[5],115%
same,"viability, T/C",[6],129%
same,"viability, T/C",[7],102%
same,"viability, T/C",[8],102%
same,"viability, T/C",[9],96.1%
same,"viability, T/C",[10],113%
same,"viability, T/C",[11],123%
same,"viability, T/C",[12],133%
same,"viability, T/C",[13],105%
same,"viability, T/C",[14],95.9%
same,"viability, T/C",[15],117%
same,"viability, T/C",[16],109%
same,"viability, T/C",[17],116%
same,"viability, T/C",[18],127%
same,"viability, T/C",[19],103%
same,"viability, T/C",[20],105%
same,"viability, T/C",[21],102%
same,"viability, T/C",[22],113%
same,"viability, T/C",[23],123%
same,"viability, T/C",[24],129%
same,"viability, T/C",[25],110%
same,"viability, T/C",[26],114%
same,"viability, T/C",[27],106%
same,"viability, T/C",[28],114%
same,"viability, T/C",[29],131%
same,"viability, T/C",[30],122%
same,"viability, T/C",[31],113%
same,"viability, T/C",[32],99.2%
same,"viability, T/C",[33],109%
same,"viability, T/C",[34],108%
same,"viability, T/C",[35],116%
same,"viability, T/C",[36],111%
O=C(c1ccc(F)c(F)c1Nc1ccc(I)cc1F)N1CC(O)([C@@H]2CCCCN2)C1 + CCN1C(C(=O)NC23CCC(C(=O)O)(CC2)CC3)C(c2cccc(Cl)c2F)C2(C(=O)Nc3cc(Cl)ccc32)C12CCCCC2,IC50,second compound 0.00949 µM,> 1 µM
same,IC50,second compound 0.03 µM,> 1 µM
same,IC50,second compound 0.0949 µM,> 1 µM
same,IC50,second compound 0.3 µM,> 1 µM
same,IC50,second compound 0.949 µM,> 1 µM
same,IC50,second compound 3 µM,> 1 µM
same,"viability, T/C",[1],102%
same,"viability, T/C",[2],90.7%
same,"viability, T/C",[3],104%
same,"viability, T/C",[4],95.7%
same,"viability, T/C",[5],93.4%
same,"viability, T/C",[6],87.7%
same,"viability, T/C",[7],100%
same,"viability, T/C",[8],98.5%
same,"viability, T/C",[9],95.5%
same,"viability, T/C",[10],95.1%
same,"viability, T/C",[11],89.5%
same,"viability, T/C",[12],82.3%
same,"viability, T/C",[13],104%
same,"viability, T/C",[14],97.5%
same,"viability, T/C",[15],88%
same,"viability, T/C",[16],102%
same,"viability, T/C",[17],85.8%
same,"viability, T/C",[18],79.2%
same,"viability, T/C",[19],99.9%
same,"viability, T/C",[20],110%
same,"viability, T/C",[21],109%
same,"viability, T/C",[22],101%
same,"viability, T/C",[23],103%
same,"viability, T/C",[24],83.7%
same,"viability, T/C",[25],110%
same,"viability, T/C",[26],114%
same,"viability, T/C",[27],112%
same,"viability, T/C",[28],109%
same,"viability, T/C",[29],108%
same,"viability, T/C",[30],77.4%
same,"viability, T/C",[31],103%
same,"viability, T/C",[32],98.3%
same,"viability, T/C",[33],101%
same,"viability, T/C",[34],99.1%
same,"viability, T/C",[35],91.3%
same,"viability, T/C",[36],77.4%
